Laboratory results from ChEMBL document CHEMBL1143439, “Open-chain half-bastadins mimic the effects of cyclic bastadins on calcium homeostasis in cultured neurons” (Bioorg Med Chem Lett, 2008).
Calls of active or inactive are those of the source. The calls are words filed in the database; no cut-off is given here.

Assays:
Ryanodine receptor 1 = Ryanodine receptor 1 (Homo sapiens, UniProt P21817); test: Binding affinity to RYR1 channels by calcium mobilization assay
Rattus norvegicus [1] = organism: Rattus norvegicus; test: Activity at RYR2 receptor in rat cerebellar granule neurons assessed as increase in intracellular calcium level at 20 uM; assay type: cell-based
Rattus norvegicus [2] = organism: Rattus norvegicus; test: Activity at RYR2 receptor in rat cerebellar granule neurons assessed activation of [45Ca2+] uptake at 20 uM after 10 mins

Sequence of Ryanodine receptor 1 (P21817 whole entry): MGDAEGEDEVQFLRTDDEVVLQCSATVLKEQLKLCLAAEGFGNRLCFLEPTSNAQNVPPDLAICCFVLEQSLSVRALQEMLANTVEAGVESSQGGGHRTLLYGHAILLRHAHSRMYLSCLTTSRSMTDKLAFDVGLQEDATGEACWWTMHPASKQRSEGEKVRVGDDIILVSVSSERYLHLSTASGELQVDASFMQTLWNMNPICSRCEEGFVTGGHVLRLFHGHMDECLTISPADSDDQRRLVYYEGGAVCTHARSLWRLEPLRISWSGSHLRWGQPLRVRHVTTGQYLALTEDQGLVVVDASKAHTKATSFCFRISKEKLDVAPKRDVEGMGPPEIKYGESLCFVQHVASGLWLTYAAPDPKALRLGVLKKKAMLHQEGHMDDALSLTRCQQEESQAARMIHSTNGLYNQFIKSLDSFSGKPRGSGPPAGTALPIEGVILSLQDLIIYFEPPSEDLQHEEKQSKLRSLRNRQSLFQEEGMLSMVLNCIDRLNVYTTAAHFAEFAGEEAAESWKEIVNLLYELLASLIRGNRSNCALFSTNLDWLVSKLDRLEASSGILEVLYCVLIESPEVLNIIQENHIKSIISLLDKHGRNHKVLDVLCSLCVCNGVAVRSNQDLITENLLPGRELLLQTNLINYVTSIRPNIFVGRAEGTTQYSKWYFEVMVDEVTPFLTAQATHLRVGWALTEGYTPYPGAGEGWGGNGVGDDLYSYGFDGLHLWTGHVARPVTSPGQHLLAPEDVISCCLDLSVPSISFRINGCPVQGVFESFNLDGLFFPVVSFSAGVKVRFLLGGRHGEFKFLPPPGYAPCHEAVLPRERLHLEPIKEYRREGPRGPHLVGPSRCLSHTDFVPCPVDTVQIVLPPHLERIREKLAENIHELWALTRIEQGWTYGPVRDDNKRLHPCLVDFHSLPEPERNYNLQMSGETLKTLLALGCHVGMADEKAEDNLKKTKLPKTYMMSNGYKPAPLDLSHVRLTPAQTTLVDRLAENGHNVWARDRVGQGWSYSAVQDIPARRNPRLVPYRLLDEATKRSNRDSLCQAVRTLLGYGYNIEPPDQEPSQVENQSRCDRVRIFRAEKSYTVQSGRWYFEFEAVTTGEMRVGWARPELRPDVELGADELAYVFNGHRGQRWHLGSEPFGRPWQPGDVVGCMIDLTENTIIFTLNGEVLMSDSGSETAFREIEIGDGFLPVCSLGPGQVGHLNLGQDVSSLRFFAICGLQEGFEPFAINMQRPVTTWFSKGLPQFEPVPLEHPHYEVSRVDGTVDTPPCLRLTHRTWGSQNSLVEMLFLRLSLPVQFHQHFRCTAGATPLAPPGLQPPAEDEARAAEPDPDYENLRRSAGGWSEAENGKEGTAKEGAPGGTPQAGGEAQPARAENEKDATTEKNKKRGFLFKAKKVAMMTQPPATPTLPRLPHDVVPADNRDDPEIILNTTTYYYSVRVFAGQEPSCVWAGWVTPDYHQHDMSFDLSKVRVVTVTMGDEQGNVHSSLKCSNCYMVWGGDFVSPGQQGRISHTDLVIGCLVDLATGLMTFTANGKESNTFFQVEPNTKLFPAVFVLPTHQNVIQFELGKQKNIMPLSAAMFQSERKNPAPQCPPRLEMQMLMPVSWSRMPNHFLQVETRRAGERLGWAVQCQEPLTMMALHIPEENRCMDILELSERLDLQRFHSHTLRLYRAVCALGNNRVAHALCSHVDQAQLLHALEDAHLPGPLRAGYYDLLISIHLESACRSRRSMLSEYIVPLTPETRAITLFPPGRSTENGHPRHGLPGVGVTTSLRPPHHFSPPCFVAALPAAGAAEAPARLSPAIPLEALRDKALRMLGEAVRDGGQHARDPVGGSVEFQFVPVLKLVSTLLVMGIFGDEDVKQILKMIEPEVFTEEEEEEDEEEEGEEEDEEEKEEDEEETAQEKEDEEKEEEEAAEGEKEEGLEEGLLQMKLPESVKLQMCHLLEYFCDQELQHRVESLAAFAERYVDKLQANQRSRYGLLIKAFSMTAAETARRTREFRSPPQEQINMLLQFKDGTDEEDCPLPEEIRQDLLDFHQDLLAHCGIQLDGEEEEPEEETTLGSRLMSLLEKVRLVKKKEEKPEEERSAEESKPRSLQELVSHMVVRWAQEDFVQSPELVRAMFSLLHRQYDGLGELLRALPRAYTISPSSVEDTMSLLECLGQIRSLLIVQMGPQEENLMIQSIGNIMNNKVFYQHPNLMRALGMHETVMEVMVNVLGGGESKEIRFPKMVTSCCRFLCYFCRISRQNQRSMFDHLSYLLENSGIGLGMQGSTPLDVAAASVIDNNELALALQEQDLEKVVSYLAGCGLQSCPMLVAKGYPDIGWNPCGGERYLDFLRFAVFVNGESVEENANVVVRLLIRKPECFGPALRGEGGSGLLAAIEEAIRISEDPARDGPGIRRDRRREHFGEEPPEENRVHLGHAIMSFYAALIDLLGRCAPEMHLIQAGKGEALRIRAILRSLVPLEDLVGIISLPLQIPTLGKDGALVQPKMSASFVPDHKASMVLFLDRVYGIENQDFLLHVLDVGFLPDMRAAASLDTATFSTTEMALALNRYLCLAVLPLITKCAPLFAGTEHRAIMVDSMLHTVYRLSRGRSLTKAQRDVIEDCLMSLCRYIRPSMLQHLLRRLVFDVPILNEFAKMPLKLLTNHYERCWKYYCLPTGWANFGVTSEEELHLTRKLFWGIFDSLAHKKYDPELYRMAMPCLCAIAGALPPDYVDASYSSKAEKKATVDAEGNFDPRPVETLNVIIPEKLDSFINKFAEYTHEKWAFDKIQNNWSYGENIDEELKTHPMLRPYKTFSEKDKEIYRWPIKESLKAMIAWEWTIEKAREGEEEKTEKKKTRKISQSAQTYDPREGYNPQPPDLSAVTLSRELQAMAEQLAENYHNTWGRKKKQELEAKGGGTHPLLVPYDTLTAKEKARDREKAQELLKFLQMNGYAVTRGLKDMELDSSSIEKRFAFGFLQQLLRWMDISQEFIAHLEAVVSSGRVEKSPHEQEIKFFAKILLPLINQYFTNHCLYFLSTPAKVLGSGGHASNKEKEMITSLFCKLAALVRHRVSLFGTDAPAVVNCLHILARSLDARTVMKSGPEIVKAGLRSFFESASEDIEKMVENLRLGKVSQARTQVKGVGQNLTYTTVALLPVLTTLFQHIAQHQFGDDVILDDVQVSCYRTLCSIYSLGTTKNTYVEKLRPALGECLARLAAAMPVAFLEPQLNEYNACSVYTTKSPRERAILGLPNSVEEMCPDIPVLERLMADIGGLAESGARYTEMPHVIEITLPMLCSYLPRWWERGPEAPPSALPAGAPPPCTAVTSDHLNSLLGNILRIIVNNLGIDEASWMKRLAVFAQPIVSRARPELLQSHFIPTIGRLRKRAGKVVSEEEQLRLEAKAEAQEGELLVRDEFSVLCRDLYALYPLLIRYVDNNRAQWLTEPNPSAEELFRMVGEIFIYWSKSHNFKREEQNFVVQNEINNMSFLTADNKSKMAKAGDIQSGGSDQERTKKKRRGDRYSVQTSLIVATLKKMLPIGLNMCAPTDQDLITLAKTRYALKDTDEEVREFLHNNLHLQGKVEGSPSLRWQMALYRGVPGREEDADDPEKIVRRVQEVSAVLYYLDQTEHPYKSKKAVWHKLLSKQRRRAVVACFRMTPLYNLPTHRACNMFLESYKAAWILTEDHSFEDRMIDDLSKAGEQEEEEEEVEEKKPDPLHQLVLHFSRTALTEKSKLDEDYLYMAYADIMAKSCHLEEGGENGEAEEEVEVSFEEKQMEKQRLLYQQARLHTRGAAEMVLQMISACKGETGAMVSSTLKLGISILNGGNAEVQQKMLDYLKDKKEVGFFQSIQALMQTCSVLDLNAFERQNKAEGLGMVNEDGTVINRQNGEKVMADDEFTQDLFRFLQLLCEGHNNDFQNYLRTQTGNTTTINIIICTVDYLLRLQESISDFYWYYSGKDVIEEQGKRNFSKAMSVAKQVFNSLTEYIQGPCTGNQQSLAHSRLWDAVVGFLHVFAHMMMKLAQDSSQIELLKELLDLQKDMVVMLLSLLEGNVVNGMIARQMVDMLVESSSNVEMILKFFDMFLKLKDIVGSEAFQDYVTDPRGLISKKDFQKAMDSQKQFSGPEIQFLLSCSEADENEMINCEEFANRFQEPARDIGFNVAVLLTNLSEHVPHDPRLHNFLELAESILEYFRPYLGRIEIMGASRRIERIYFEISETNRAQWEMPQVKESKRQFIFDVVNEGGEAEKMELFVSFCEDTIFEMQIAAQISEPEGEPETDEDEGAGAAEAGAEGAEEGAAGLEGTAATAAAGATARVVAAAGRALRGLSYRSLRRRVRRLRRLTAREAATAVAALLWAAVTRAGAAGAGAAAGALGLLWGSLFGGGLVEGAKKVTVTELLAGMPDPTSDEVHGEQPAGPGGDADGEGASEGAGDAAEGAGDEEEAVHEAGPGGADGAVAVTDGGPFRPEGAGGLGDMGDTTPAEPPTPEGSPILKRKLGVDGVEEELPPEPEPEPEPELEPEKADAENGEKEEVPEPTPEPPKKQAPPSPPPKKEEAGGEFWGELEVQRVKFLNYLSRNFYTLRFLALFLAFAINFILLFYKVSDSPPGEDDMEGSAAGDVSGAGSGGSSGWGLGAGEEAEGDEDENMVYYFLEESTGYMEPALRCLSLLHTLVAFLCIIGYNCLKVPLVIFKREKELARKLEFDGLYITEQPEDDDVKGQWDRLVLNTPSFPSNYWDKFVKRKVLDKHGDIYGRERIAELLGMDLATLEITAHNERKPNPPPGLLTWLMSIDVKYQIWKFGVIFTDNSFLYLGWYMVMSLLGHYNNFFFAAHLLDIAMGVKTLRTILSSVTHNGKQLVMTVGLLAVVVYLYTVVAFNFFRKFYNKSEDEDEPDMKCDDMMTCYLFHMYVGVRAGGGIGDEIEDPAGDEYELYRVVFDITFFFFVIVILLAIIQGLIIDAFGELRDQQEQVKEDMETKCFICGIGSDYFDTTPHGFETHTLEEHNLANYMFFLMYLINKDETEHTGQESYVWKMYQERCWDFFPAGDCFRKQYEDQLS

O=C1CCc2ccc(c(Br)c2)Oc2cc(cc(Br)c2O)CCN1
EC50 (Ryanodine receptor 1): 11 µM

O=C1CCNC(=O)CCc2ccc(c(Br)c2)Oc2cc(cc(Br)c2O)CCN1
IC50 (Ryanodine receptor 1): 6 µM

O=C(NCCc1cc(Br)c(Oc2cc(NC(=O)c3ccccc3)ccc2O)c(Br)c1)c1ccccc1
Activity (Rattus norvegicus [1]): inactive

CCCCNC(=O)/C(Cc1cc(Br)c(Oc2cc(C/C(=N\O)C(=O)NCCCC)cc(Br)c2O)c(Br)c1)=N/O
Activity (Rattus norvegicus [1]): Active | Activity (Rattus norvegicus [2]): Active

O=C1NCCc2cc(Br)c(O)c(c2)Oc2ccc(cc2Br)CCNC(=O)/C(=N\O)Cc2cc(Br)c(O)c(c2)Oc2c(Br)cc(cc2Br)C/C1=N/O
Activity (Rattus norvegicus [1]): Active | Activity (Rattus norvegicus [2]): Active
